Assay results from paper PMC8720286 (Chemical biology & drug design, 2020).
pIC50: −log10 of the molar value. Converted amounts (≈) assume the structure as drawn.

Key:
Mtb H37Rv = assay: MIC determination by microplate AlamarBlue assay; details: for fold more potent against M.tb than counterparts 3 - 5 with no carbon spacer: 9 vs 3, 10 vs 4, 11 vs 5; for anti-TB activity in words: susceptible strain of Mtb, SAR discussion; for Mtb MIC H37Rv/DS: Table 2, H37Rv drug-sensitive
Mtb V4207/DS = assay: microbe, parasite or virus in culture; type: cell-based; details: Mycobacterium tuberculosis, read-out: Mtb MIC V4207/DS
Mtb KZN494/MDR = assay: microbe, parasite or virus in culture; type: cell-based, Mycobacterium tuberculosis; details: relative to H37Rv MIC
in vitro [1] = type: cell-based; details: African green monkey
Vero cells = assay: in vitro; type: cell-based; details: IC50 (Vero)/MIC
clinical isolates of Mtb = type: cell-based, Mycobacterium tuberculosis; details: for MIC range against MDR and XDR strains of TB: range over both compounds and strains; for fold drop in activity against the tested clinical isolates of Mtb: relative to H37Rv MIC
in vitro [2] = type: in vitro ADME; details: human, plasma
in vitro [3] = type: in vitro ADME; details: mouse, plasma
CYP1A2 = target: T1, CYP1A2 (Homo sapiens, UniProt P05177); assay: CYP inhibition, CYP1A2; type: in vitro ADME
T1 sequence (P05177 1-516): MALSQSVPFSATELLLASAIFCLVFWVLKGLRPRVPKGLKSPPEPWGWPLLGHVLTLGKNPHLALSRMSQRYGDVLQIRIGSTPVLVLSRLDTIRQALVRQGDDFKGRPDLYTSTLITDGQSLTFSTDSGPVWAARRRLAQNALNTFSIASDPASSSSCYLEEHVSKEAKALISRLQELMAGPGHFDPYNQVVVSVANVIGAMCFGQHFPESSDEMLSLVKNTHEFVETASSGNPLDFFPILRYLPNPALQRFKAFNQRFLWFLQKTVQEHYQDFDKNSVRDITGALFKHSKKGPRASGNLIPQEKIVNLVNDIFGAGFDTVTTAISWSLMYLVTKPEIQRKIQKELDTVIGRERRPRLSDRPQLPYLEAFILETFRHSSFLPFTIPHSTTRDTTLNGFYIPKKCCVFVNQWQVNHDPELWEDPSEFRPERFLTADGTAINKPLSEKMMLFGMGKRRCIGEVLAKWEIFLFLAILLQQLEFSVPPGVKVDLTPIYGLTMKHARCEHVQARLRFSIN

CYP2C9 = CYP2C9 (Homo sapiens, UniProt P11712); assay: CYP inhibition, CYP2C9; type: in vitro ADME
CYP2C9, sequence (P11712 whole entry): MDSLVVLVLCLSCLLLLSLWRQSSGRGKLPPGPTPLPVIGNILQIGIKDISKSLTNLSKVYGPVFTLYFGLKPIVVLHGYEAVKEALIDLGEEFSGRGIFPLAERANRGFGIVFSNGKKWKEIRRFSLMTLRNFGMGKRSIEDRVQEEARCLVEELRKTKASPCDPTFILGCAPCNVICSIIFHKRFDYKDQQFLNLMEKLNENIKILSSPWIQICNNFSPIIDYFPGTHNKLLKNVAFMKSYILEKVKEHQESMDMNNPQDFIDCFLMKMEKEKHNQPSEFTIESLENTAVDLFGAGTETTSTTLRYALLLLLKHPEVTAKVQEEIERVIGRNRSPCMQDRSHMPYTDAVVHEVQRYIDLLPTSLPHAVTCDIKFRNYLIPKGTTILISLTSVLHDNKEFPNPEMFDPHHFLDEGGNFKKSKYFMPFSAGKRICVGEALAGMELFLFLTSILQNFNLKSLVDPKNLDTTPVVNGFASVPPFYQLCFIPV

CYP2C19 = CYP2C19 (Homo sapiens, UniProt P33261); assay: CYP inhibition, CYP2C19; type: in vitro ADME
CYP2C19, sequence (P33261 whole entry): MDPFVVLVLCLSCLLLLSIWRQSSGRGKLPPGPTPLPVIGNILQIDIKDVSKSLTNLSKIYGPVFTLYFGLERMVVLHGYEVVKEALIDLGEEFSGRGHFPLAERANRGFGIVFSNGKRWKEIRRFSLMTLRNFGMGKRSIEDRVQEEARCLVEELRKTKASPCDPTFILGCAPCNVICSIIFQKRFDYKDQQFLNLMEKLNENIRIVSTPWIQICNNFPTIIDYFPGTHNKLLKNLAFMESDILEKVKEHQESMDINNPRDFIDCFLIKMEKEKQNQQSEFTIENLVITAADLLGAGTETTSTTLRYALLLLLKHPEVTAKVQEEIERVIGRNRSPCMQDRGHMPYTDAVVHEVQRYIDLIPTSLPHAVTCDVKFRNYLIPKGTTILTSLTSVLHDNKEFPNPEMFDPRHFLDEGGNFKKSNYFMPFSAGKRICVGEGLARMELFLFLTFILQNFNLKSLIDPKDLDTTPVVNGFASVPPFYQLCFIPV

CYP2D6 = CYP2D6 (Homo sapiens, UniProt P10635); assay: CYP inhibition, CYP2D6; type: in vitro ADME
CYP2D6, sequence (P10635 whole entry): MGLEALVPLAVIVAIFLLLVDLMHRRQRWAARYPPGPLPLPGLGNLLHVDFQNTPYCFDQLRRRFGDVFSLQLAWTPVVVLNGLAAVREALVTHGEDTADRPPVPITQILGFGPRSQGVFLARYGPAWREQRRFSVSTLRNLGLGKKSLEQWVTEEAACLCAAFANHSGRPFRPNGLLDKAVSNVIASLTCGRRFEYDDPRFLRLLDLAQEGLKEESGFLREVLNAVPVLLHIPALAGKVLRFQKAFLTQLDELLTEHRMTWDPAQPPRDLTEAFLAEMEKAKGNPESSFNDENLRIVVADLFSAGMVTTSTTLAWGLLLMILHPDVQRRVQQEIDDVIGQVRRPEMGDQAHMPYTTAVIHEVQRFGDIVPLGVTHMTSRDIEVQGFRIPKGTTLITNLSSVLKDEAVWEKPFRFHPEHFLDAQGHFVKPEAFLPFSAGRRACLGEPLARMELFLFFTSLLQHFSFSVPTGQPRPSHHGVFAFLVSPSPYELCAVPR

CYP3A4 = CYP3A4 (Homo sapiens, UniProt P08684); assay: CYP inhibition, CYP3A4; type: in vitro ADME; details: probe midazolam
CYP3A4, sequence (P08684 whole entry): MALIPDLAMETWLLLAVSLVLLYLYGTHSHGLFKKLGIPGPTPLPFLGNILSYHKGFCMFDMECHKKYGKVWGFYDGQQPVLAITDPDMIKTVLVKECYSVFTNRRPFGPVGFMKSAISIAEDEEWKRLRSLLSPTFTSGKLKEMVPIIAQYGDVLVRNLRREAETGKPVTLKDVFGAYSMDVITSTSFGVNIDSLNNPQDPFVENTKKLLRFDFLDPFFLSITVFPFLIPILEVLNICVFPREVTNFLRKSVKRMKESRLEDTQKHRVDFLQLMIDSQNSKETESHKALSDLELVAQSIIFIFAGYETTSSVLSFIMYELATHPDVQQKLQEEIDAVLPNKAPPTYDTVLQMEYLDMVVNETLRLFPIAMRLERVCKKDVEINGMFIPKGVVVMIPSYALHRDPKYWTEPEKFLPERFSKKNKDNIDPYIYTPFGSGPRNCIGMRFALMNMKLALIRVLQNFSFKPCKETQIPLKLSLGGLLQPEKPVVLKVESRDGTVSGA

hERG = hERG (Homo sapiens, UniProt Q12809); assay: hERG channel inhibition, manual patch-clamp; type: cell-based; details: human
hERG, sequence (Q12809 whole entry): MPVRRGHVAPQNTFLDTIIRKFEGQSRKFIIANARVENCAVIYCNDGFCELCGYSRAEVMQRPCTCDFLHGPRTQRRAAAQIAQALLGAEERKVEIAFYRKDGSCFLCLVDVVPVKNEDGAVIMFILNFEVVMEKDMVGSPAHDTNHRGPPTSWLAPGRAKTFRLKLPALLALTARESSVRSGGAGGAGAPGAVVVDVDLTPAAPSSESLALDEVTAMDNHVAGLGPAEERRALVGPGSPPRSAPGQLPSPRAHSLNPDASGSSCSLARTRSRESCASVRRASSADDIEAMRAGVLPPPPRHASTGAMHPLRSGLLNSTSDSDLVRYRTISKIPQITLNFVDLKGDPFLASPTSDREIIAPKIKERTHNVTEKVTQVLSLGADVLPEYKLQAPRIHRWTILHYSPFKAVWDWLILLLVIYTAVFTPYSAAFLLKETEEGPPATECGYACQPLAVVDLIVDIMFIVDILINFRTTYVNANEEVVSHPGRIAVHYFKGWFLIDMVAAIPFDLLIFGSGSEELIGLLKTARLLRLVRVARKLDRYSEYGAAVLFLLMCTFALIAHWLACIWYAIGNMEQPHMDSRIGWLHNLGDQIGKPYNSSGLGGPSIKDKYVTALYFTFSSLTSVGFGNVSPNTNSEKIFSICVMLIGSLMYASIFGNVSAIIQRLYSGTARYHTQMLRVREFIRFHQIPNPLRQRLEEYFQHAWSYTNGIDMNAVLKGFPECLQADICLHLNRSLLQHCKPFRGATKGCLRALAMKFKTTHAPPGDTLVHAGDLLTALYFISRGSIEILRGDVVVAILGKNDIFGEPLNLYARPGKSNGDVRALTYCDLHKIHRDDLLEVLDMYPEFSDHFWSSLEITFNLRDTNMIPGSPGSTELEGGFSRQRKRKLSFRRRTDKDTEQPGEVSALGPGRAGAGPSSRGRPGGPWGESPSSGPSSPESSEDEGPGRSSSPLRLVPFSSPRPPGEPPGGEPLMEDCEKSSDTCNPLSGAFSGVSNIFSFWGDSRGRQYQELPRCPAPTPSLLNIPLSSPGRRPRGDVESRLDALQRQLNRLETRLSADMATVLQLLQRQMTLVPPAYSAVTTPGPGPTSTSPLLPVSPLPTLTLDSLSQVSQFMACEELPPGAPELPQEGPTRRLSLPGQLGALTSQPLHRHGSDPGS

[4] = target: human Ether-à-go-go related gene (hERG) channel (Homo sapiens, UniProt Q12809); assay: hERG channel inhibition, manual patch-clamp; type: cell-based
human Ether-à-go-go related gene (hERG) channel, sequence (Q12809 whole entry): as above

in vitro [5] = type: in vitro ADME
in vitro [6] = type: in vitro ADME; details: human, microsomes, Liver microsomes, % remaining after 1 hr (human)
in vitro [7] = type: in vitro ADME; details: mouse, microsomes, Liver microsomes, % remaining after 1 hr (mouse)

Q: Which “fold more potent against M.tb than counterparts 3 - 5 with no carbon spacer” value (“fold more potent … with no carbon spacer” for short) (Mtb H37Rv; ratio of MIC) does the source give for `Cc1ccc2nc(C)c(C(=O)NCC3CCCCC3)n2c1` [Compound 9, N-(cyclohexylmethyl)-2,6-dimethylimidazo[1,2-a]pyridine-3-carboxamide] here?
A: The value was 267 fold.

Q: With `Cc1ccc2nc(C)c(C(=O)NCC3CCCCCC3)n2c1` [Compound 10, N-(cycloheptylmethyl)-2,6-dimethylimidazo[1,2-a]pyridine-3-carboxamide] as the compound, how does the “fold more potent … with no carbon spacer” value (Mtb H37Rv; ratio of MIC) read?
A: Its value is 133 fold.

Q: For `Cc1ccc2nc(C)c(C(=O)NCC3CCCCCCC3)n2c1` [Compound 11, N-(cyclooctylmethyl)-2,6-dimethylimidazo[1,2-a]pyridine-3-carboxamide], which “fold more potent … with no carbon spacer” value (Mtb H37Rv; ratio of MIC) is on record?
A: The value was 133 fold.

Q: With `Cc1ccc2nc(C)c(C(=O)NCC34CC5CC(CC(C5)C3)C4)n2c1` [Compound 12, N-(adamantan-1-ylmethyl)-2,6-dimethylimidazo[1,2-a]pyridine-3-carboxamide] as the compound, how does the “anti-TB activity in words” value (Mtb H37Rv) read?
A: Its value is “poor anti-TB activity”.

Q: What does the source list for `Cc1ccc2nc(C)c(C(=O)NCCCC3CCCCC3)n2c1` [Compound 15, N-(3-cyclohexylpropyl)-2,6-dimethylimidazo[1,2-a]pyridine-3-carboxamide]?
A: MIC (Mtb V4207/DS): 0.1 µM (≈ 0.0313 µg/mL); fold increase in activity against MDR Mtb strain KZN494 (Mtb KZN494/MDR): 2 fold; IC50 at 72 h (in vitro [1]): 102 µM; SI, Selectivity index = IC50 (Vero)/MIC (Vero cells): 1024; MIC range against MDR and XDR strains of TB (clinical isolates of Mtb): 0.05 to 1.5 µM; fold drop in activity against the tested clinical isolates of Mtb (clinical isolates of Mtb): up to 2 fold; fold more active than isoniazid against H37Rv (Mtb H37Rv; ratio of MIC): 1.5 - 3 fold; Mtb MIC H37Rv/DS (Mtb H37Rv): 0.10 µM; fold more active than compounds 9 and 13 (Mtb H37Rv; ratio of MIC): 4 fold

Q: Which MIC (Mtb V4207/DS) does the source give for `Cc1nc2ccc(Cl)cn2c1C(=O)NCCCC1CCCCC1` [Compound 16, 6-chloro-N-(3-cyclohexylpropyl)-2-methylimidazo[1,2-a]pyridine-3-carboxamide] here?
A: The MIC was 0.37 µM (≈ 0.124 µg/mL).

Q: What about the “fold increase in activity against MDR Mtb strain KZN494” value (Mtb KZN494/MDR) of the same compound?
A: The value was 2 fold.

Q: And the IC50 at 72 h (in vitro [1])?
A: Its IC50 at 72 h is at least 192 µM.

Q: And the “SI, Selectivity index = IC50 (Vero)/MIC” value (Vero cells)?
A: The value was at least 1024.

Q: What about the fraction unbound (in vitro [2]) of the same compound?
A: Its fraction unbound is 0.0011.

Q: What about the fraction unbound (in vitro [3]) of the same compound?
A: Its fraction unbound is 0.0036.

Q: And the inhibition at 10 µM (CYP1A2)?
A: Its inhibition at 10 µM is 26.3%.

Q: What about the inhibition at 10 µM (CYP2C9) of the same compound?
A: Its inhibition at 10 µM is 32.2%.

Q: And the inhibition at 10 µM (CYP2C19)?
A: The inhibition at 10 µM was 45.2%.

Q: What about the inhibition at 10 µM (CYP2D6) of the same compound?
A: Its inhibition at 10 µM is 16.4%.

Q: What about the inhibition at 10 µM (CYP3A4) of the same compound?
A: Its inhibition at 10 µM is 52.2%.

Q: And the inhibition at 10 µM (hERG)?
A: Its inhibition at 10 µM is 29.1%.

Q: What about the pIC50 [4] of the same compound?
A: The pIC50 was under 5.00.

Q: What about the “% degraded after 2 hours incubation with human hepatocyte” value (in vitro [5]; 2 h, 1 μM) of the same compound?
A: The value was “over 95%”.

Q: And the remaining at 2 h, 1 μM (in vitro [5]; human, hepatocytes)?
A: Its remaining at 2 h, 1 μM is 0.19%.

Q: And the remaining at 1 h, 1 μM (in vitro [6])?
A: The remaining at 1 h, 1 μM was about 1.5%.

Q: What about the remaining at 1 h, 1 μM (in vitro [7]) of the same compound?
A: The remaining at 1 h, 1 μM was about 0.15%.

Q: What about the “MIC range against MDR and XDR strains of TB” value (clinical isolates of Mtb) of the same compound?
A: Its value is 0.05 to 1.5 µM.

Q: And the “fold drop in activity against the tested clinical isolates of Mtb” value (clinical isolates of Mtb)?
A: Its value is “up to 8 fold”.

Q: And the “fold more active than isoniazid against H37Rv” value (Mtb H37Rv; ratio of MIC)?
A: Its value is 1.5 - 3 fold.

Q: And the “Mtb MIC H37Rv/DS” value (Mtb H37Rv)?
A: The value was 0.19 µM.

Q: What about the “fold drop in activity relative to compound 15” value (Mtb H37Rv; ratio of MIC) of the same compound?
A: The value was “approximately 2 fold”.

Q: Which “anti-TB activity in words” value (Mtb H37Rv) does the source give for `O=C(NCCCC1CCCCC1)c1c(-c2ccccc2)nc2cc(Cl)ccn12` [Compound 17, 7-chloro-N-(3-cyclohexylpropyl)-2-phenylimidazo[1,2-a]pyridine-3-carboxamide] here?
A: Its value is “complete loss in activity”.

Q: Which “anti-TB activity in words” value (Mtb H37Rv) does the source give for `O=C(NC1CCCCCCC1)c1cn2ccc(Cl)cc2n1` [Compound 18, 7-chloro-N-cyclooctylimidazo[1,2-a]pyridine-2-carboxamide] here?
A: Its value is “less active”.

Q: With `O=C(NCCCC1CCCCC1)c1cn2ccc(Cl)cc2n1` [Compound 19, 7-chloro-N-(3-cyclohexylpropyl)imidazo[1,2-a]pyridine-2-carboxamide] as the compound, how does the “anti-TB activity in words” value (Mtb H37Rv) read?
A: Its value is “less active”.
